One data set is filed under the species Mus musculus. In words: Cicatrizant activity in mouse assessed as wound healing by tensile strength method. The class given is functional.
Data set [1] can be described thus: Growth inhibition of mouse 3T3 cells. The following applies: NIH3T3 cells. Format: cell-based.

Structures are written as SMILES. ≈ marks a conversion by molar mass, not a printed value. Calls of active or inactive are those of the source. The calls are words filed in the database; no cut-off is given here.

A word on the ED50: it is the dose at which the effect has come halfway, by size or by number of responders. One may read the GI50 as the concentration at which growth is held to half of that of the control. The low end stands for greater sensitivity of the cells, the high end for lower sensitivity of the cells.

On to `C=CC(C)(O)CC/C=C(\C)CCC=C(C)C` (stereo not drawn), for which the ED50 result in the data set filed under Mus musculus is “inactive”.

As for `COc1ccc2c(=O)oc3c(OC)cc(CCN(C)C)c4c(=O)oc1c2c34` [TASPINE], the ED50 in the data set listed under Mus musculus was 15 mg/kg.

As for `CC1=CC[C@@H](C(C)(C)O)CC1` [ALPHA-TERPINEOL], in data set [1], the GI50 was found to be 17 µg/mL (≈ 110 µM). Besides, the ED50 in the data set filed under Mus musculus is 240 mg/kg.

As to `CC(C)=CCC/C(C)=C/CC/C(C)=C/CO`, in the data set listed under Mus musculus, the ED50 entry is “inactive”.

In turn, `CC(C)=CCC[C@](C)(O)[C@H]1CC=C(C)CC1` gave a GI50 in data set [1] of 8 µg/mL (≈ 36 µM).

For the molecule `CC(C)=CCC[C@](C)(O)[C@@H]1CC=C(C)CC1` [LEVOMENOL], in data set [1], the GI50 came to 84 µg/mL (≈ 378 µM). The ED50 in the data set filed under Mus musculus came out at 228 mg/kg.

The record behind these values is ChEMBL document CHEMBL1156368, “(+)-epi-Alpha-bisabolol [correction of bisbolol] is the wound-healing principle of Peperomia galioides: investigation of the in vivo wound-healing activity of related terpenoids” (J Nat Prod, 2001).
